One data set deals with SARS-CoV-2 PL^pro (Severe acute respiratory syndrome coronavirus 2, UniProt P0DTD1). It is filed as biochemical.
Data set [1] deals with SARS-CoV-2. To be noted: Vero CCL-81 cells.
The nature of data set [2]: Human liver microsomal stability assay. Conditions: for half-life at 0.5 μM / microsomal CLint at 0.5 μM: human; for microsomal CLint at 0.5 μM: pH 7.4, HLM CLint(mic).
The conditions of data set [3]: human, microsomes.
Data set [4] is described as follows: in vitro. Conditions: PAMPA.
Data set [5] can be described thus: in vitro. To be noted: CD1, mouse, microsomes, pH 7.4.
A short description of data set [6]: in vitro. To be noted: human, microsomes, pH 7.4.
Data set [7] in a line: Mouse liver microsomal stability assay. Conditions: CD1, mouse, pH 7.4.
Data set [8] can be described thus: physchem. Conditions: 25 °C, kinetic from dmso stock.
Another data set deals with PL^pro (Severe acute respiratory syndrome coronavirus 2, UniProt P0DTD1). To be noted: 20 μM compound, 5 μM enzyme, average of triplicates with SD.
Data set [9] in a line: physchem. Conditions: pH 7.4.
The conditions of data set [10]: PAMPA.
The conditions of data set [11]: female, BALB/c, mouse, 1 h, pH 7.4.
Another data set in a line: Plasma stability. To be noted: for half-life at 2 μM: female, BALB/c, mouse, plasma, pH 7.4; for plasma stability remaining 60 min: mouse plasma.
A short description of data set [12]: Parallel artificial membrane permeability assay (PAMPA).
Data set [13] can be described thus: Chromatographic distribution coefficient (eLogD7.4). Conditions: pH 7.4.
A further data set in a line: Kinetic solubility. To be noted: 25 °C, kinetic from dmso stock.
The nature of data set [14]: in vitro. To be noted: human, uninfected HeLa-ACE2 cells.
The subject of data set [15] is SARS-CoV-2.
In data set [16] the test system is SARS-CoV-2. As to the kind of experiment: microbe, parasite or virus in culture.
Data set [17] relates to HeLa-ACE2 cells.
Data set [18] deals with uninfected HeLa-ACE2 cells. To be noted: Hela-ACE2 Uninfected Cell Toxicity.
For data set [19], the system named is HeLa-ACE2 cells. As to the kind of experiment: cells. To be noted: Homo sapiens.
The mark [20] stands for this setting: microsomes, human liver microsomes.
Setting [21] is: microsomes, pH 7.4, HLM T 1/2, human liver microsomes.
Setting [22] is: Hela-ACE2 % Positive SARS-CoV-2, curve fit.
[23] abbreviates: Hela-ACE2 CoV-2 Total Cell count, curve fit.

“And” between values parts separate entries of the source, which are not always exact repeats. Equal values may be shown once. Read-outs that look alike come from different tables or passages of the source. Where only a bound is given, the exact number is not on record here.

With `N=C(N)NCCCCC(=O)Nc1cc(C(F)(F)F)cc(NC(=O)c2cc(C(=O)Nc3cc(C(F)(F)F)cc(NC(=O)CCCCNC(=N)N)c3O[C@@H]3CCNC3)ncn2)c1O[C@@H]1CCNC1` [Brilacidin, reference compound], on SARS-CoV-2 PL^pro, the “inhibition of SARS-CoV-2 PL^pro” value is listed as at least 80%. Also, the “decrease of viral replication (viral load by RT-PCR)” value in the data set on SARS-CoV-2 [1] (1 μM) is given as “over 50%”.
For `COc1ccc(CNC(=O)C2CCN([C@H](C)c3ccccc3)CC2)cc1` [Compound 3], the half-life at 0.5 μM in data set [2] (liver microsomes, pH 7.4) was determined as 231 min; in data set [7] (liver microsomes) it was 29.5 min. In data set [3], the “metabolic stability (in words)” value is recorded as “improved stability”. In addition, the Papp at 5 h, 10 μM in the data set “in vitro [4]” came to 2.35 ×10⁻⁶ cm/s. Besides, the microsomal CLint at 0.5 μM turned out to be 94 µL/min/mg in “in vitro [5]” and 12 µL/min/mg in “in vitro [6]”. The solubility (kinetic) at 24 h in “physchem [8]” (pH 2, aqueous buffer) was over 22.1 µg/mL; in the data set “physchem [8]” (pH 7.4, aqueous buffer), over 22.3 µg/mL. Besides, the ΔT m on PL^pro is 0.06 °C and 0.06 ± 0.05 °C. In addition, the chromatographic logD in the data set “physchem [9]” stood at 3. Besides, the “permeability (in words)” value in [10] was “highly permeable”. Besides, the “plasma stability remaining 60 min” value in data set [11] (2 μM) was determined as 83.80%.
Consider `COc1ccc(CC(=O)NC2CCN([C@H](C)c3cccc4ccccc34)CC2)cc1` [Compound 6], for which the half-life at 0.5 μM in data set [2] (liver microsomes, pH 7.4) came to 31.4 min; in data set [7] (liver microsomes), 16.2 min. Also, in “in vitro [4]”, the Papp at 5 h, 10 μM was found to be 1.74 ×10⁻⁶ cm/s. Moreover, the microsomal CLint at 0.5 μM in the data set “in vitro [5]” came to 171 µL/min/mg; in “in vitro [6]”, 88.4 µL/min/mg. Further, in the data set “Plasma stability”, the half-life at 2 μM was 38.5 h. Further, the solubility (kinetic) at 24 h was over 24.9 µg/mL in the data set “physchem [8]” (pH 2, aqueous buffer) and over 12.7 µg/mL in the data set “physchem [8]” (pH 7.4, aqueous buffer). In addition, the ΔT m on PL^pro was 4.8 °C and 4.8 ± 0.1 °C. Moreover, the chromatographic logD in the data set “physchem [9]” is 4.28. For the same compound, the “permeability (in words)” value in data set [10] is listed as “highly permeable”. Besides, in data set [11] (2 μM), the “plasma stability remaining 60 min” value stood at 90.29%.
For the compound `COc1ccc(CC(=O)N2CCN([C@@H](C)c3cccc4ccccc34)CC2)cc1` [Compound 8], the microsomal CLint at 0.5 μM in [2] (setting [20]) turned out to be 186 µL/min/mg; in [7] (microsomes), 348 µL/min/mg. Also, the half-life at 0.5 μM amounted to 14.9 min in [2] (setting [21]) and 7.97 min in data set [7] (microsomes). For the same compound, the Papp at 5 h, 10 μM in data set [12] was 1.07 ×10⁻⁶ cm/s. The chromatographic logD in data set [13] came to 4.56. For the same compound, the “plasma stability remaining 60 min” value in “Plasma stability” is 84.48%. For the same compound, the solubility (kinetic) at 24 h in “Kinetic solubility” (pH 2, aqueous buffer) was over 22.9 µg/mL; in the data set “Kinetic solubility” (pH 7.4, aqueous buffer) it was over 15.8 µg/mL. For the same compound, the ΔT m on PL^pro amounted to 0.28 ± 0.05 °C.
With `COc1ccc(CNC(=O)C2CCN(C(C)c3cccc4ccccc34)C2)cc1` (centres unmarked) [Compound 17], the half-life at 0.5 μM in [2] (microsomes, pH 7.4) was determined as 21.7 min; in [7] (microsomes), 10.3 min. Further, the microsomal CLint at 0.5 μM in data set [2] (setting [20]) was 128 µL/min/mg; in [7] (microsomes), 270 µL/min/mg. Further, the Papp at 5 h, 10 μM in [12] came out at 0.61 ×10⁻⁶ cm/s. In “in vitro [14]”, this compound had an AC50 at 24 h of 29.6 µM. In addition, the CC50 at 24 h in the data set “in vitro [14]” (uninfected HeLa-ACE2 CC50, supplement summary) worked out at 29.6 µM; in “in vitro [14]” (uninfected HeLa-ACE2 CC50, uninfected HeLa-ACE2 cells, average of triplicates), 29.6 ± 0.2 µM. Besides, the chromatographic logD in [13] amounted to 4.25. Moreover, the half-life at 2 μM in “Plasma stability” stood at 12.8 h. Besides, the solubility (kinetic) at 24 h in “Kinetic solubility” (pH 2, aqueous buffer) is over 24 µg/mL; in “Kinetic solubility” (pH 7.4, aqueous buffer), over 19.9 µg/mL. The “CoV2 Efficacy (delta S0:Sinf)” value with SARS-CoV-2 [15] (HeLa-ACE2) is reported as 107.984. For the same compound, the “Data Mode” value in the data set with SARS-CoV-2 [15] (Hela-ACE2 % Positive SARS-CoV-2) is “decreasing”; in the data set with HeLa-ACE2 cells [17] (Hela-ACE2 CoV-2 Total Cell count), “increasing (weakly active)”; in data set [18], “decreasing”. In addition, the S0 is 7.984 in the data set on SARS-CoV-2 [15] (setting [22]), -9.971 in the data set with HeLa-ACE2 cells [17] (setting [23]) and -3.377 in [18] (curve fit). The Sinf in the data set on SARS-CoV-2 [15] (setting [22]) was -100; in the data set on HeLa-ACE2 cells [17] (setting [23]), 100; in data set [18] (curve fit), -100. Also, the nHill stood at 2.951 in the data set on SARS-CoV-2 [15] (setting [22]), 1.233 in the data set with HeLa-ACE2 cells [17] (setting [23]) and 2.597 in data set [18] (curve fit). Moreover, the EC50 in the data set with SARS-CoV-2 [16] (Severe acute respiratory syndrome coronavirus 2, HeLa-ACE2, read-out: CoV-2 EC50, HeLa-ACE2, supplement summary) was 6.49 µM; with SARS-CoV-2 [16] (Severe acute respiratory syndrome coronavirus 2, HeLa-ACE2, read-out: SARS-CoV-2 EC50, HeLa-ACE2 cells, average of triplicates), 6.4 ± 0.4 µM; in the data set with SARS-CoV-2 [16] (Severe acute respiratory syndrome coronavirus 2, HeLa-ACE2, read-out: qAC50, Hela-ACE2 % Positive SARS-CoV-2, relation in column qAC50 Mode, unit inferred) it was 6.48 µM; with HeLa-ACE2 cells [19] (HeLa-ACE2, read-out: HeLa-ACE2 Total cells EC50), over 9.61 µM; with HeLa-ACE2 cells [19] (HeLa-ACE2, read-out: qAC50), over 9.61 µM. Further, the AC50 in the data set on SARS-CoV-2 [16] (Severe acute respiratory syndrome coronavirus 2, HeLa-ACE2, read-out: Log AC50 (converted)) was 6.48 µM; with HeLa-ACE2 cells [19] (HeLa-ACE2, read-out: Log AC50 (converted)) it was over 9.61 µM. Besides, the inhibition at 9.61 µM with SARS-CoV-2 [16] (Severe acute respiratory syndrome coronavirus 2, HeLa-ACE2, read-out: inhibition in the highest concentration tested) was over 50%. The “HeLa-ACE2 Total Cell Efficacy (Sinf, note + or -)” value in the data set on HeLa-ACE2 cells [17] (infected HeLa-ACE2 total cell count) worked out at 1.233. Moreover, in [18] (relation in column qAC50 Mode, unit not given), the qAC50 was determined as 2.965e-5. Besides, in data set [11], the “plasma stability remaining 60 min” value was 73.01%.
With `COc1ccc(CNC(=O)C2CCN(C(C)c3cccc4ccccc34)CC2)cc1` (centres unmarked) [MMV1634397], in [2] (human liver microsomes), the “HLM CLint(mic)” value was 80.40 µL/min/mg and the “HLM T 1/2” value is 34.48 min. The microsomal CLint at 0.5 μM in data set [2] (setting [20]) was 80 µL/min/mg. The same compound yielded a half-life at 0.5 μM in [2] (setting [21]) of 35 min. The “metabolic stability (in words)” value in [2] (liver microsomes) was “moderately stable”. Also, in [12], the Papp at 5 h, 10 μM was found to be 1.07 ×10⁻⁶ cm/s and the “permeability (in words)” value is “medium to low permeable”. In data set [13], this compound returned a chromatographic logD of 4.17. Besides, in “Plasma stability”, the half-life at 2 μM worked out at 7.22 h and the “plasma stability remaining 60 min” value is reported as 54.08%. For the same compound, the solubility (kinetic) at 24 h in “Kinetic solubility” (pH 2, aqueous buffer) is over 24.6 µg/mL. Further, the kinetic solubility at 24 h in “Kinetic solubility” (pH 7.4, aqueous buffer) was over 21.6 µg/mL. In [7] (microsomes), this compound registered a half-life at 0.5 μM of 21.5 min and a microsomal CLint at 0.5 μM of 129 µL/min/mg. Besides, the “inhibition of SARS-CoV-2 PL^pro” value at SARS-CoV-2 PL^pro is reported as at least 80%. In addition, the ΔT m on PL^pro is 6.26 °C and 6.3 ± 0.3 °C. The “decrease of viral replication (viral load by RT-PCR)” value in the data set with SARS-CoV-2 [1] (10 μM) is on record as “over 50%”.

(Values after paper PMC12461331, “Screening of Medicines for Malaria Venture Open Boxes Identifies Potent SARS-CoV‑2 Papain-like Protease (PL^pro) Inhibitors” (ACS Omega, 2025).)
